Data: US10017403B2, “Use of peracetic acid/hydrogen peroxide and peroxide-reducing enzymes for treatment of drilling fluids, frac fluids, flowback water and disposal water” (ECOLAB USA INC., priority 2012, dated 2018)

What was measured:
[1] = Catalase amount needed in POAA treated water, iodometric titration (Example 15); assay type: biochemical
Procedure: Field of use applications were analyzed to determine the amount of a peroxide-reducing enzyme necessary to obtain desired concentrations of both peracid and hydrogen peroxide in a treated water source. EnviroSan (POAA) peracid composition was added to water to reach the targeted POAA concentrations set forth in Table 18, and the concentration of both POAA and H2O2 were confirmed by iodometric titration. Then catalase (ES2000) was added to the solution, and the sample was stored under ambient conditions. The concentration of POAA and H2O2 were monitored by the iodometric conditions.

fracking water mixtures [2] = assay: Micro efficacy in fracking water mixtures, baseline without catalase (Example 3); assay type: cell-based
Procedure: The impact of water pretreatment with 500 ppm of the EnviroSan product (75 ppm POAA) on micro efficacy in various fracking water mixtures were evaluated. The example represents a baseline data set of various water treatment options according to the invention. Table 2 and FIG. 3 show the average log reduction in various slick water treatments with varying ppm PAA (without any catalase treatment or pretreatment), representing a baseline data set.

[3] = Titration of POAA consumption in water mixtures (Example 6); assay type: physicochemical
[4] = tested on: Pseudomonas aeruginosa ATCC 15442; assay: Micro efficacy at 30 ppm POAA with or without catalase, with or without water pretreatment (Example 7); assay type: cell-based; details: no holding tank pretreatment, 30 ppm PAA
Procedure: All water mixtures were treated with an initial concentration of 30 ppm POAA EnviroSan, both with and without the addition of catalase. The data set evaluates whether there is a significant difference in micro activity generated between treatments of EnviroSan alone vs. EnviroSan pre-reduced with catalase.
All ratios of fracking water mixtures tested (100/0, 90/10, 80/20 & 70/30) were freshly mixed solutions, as well as solutions mixed and pretreated with 500 ppm EnviroSan product more than 1 hour before the start of the micro evaluation, in order to observe if a pretreatment step is of value for micro performance compared to those mixtures not pretreated. The test system (P. aeruginosa and natural water) described in Example 5 was again utilized. Water mixtures as outlined in Table 9 were provided (showing the percentage of 100 mL of each water sample type).
The testing methods of Example 5 were utilized for the chemically treated water samples, differing only in the combination of the 10 mL inoculated water mixtures with appropriate volumes of the EnviroSan with or without catalase to achieve 30 ppm POAA residual to each test tube in timed intervals and mixed. The methods of Example 5 were employed to make the EnviroSan with catalase stock solutions. In comparison, for the water samples that were not chemically treated, 9.9 mL of test water mixture was dispensed into 2 individual test tubes. 0.10 mL of an approximate 10^8 CFU/mL culture of P. aeruginosa was added in timed intervals and mixed thoroughly. Then 1 mL samples were neutralized in 9 mL of 0.5% sodium thiosulfate, followed by serial dilution and enumeration after 2.5 minutes, 5 minutes and 60 minute exposure times.
Table 11C show the use of 30 ppm POAA with/without catalase treatment compared for micro performance at both 2.5 and 5.0 minutes exposure times. Upon addition of 10-30% reuse water a defined drop in antimicrobial performance was observed over both 2.5 and 5 minutes as peracid was rapidly consumed if not pretreated with catalase. A residual of 30 ppm POAA at 5 minutes was needed to achieve the desired antimicrobial performance.

fracking water mixtures [5] = assay: Micro efficacy: POAA dosed for 30 ppm residual versus POAA pretreated with catalase (Example 8); assay type: cell-based; details: no holding tank treatment
Procedure: A micro efficacy comparison of POAA added at levels to target 30 ppm POAA residuals at 5 minutes versus POAA pretreated with catalase was conducted as set forth in Table 12.

[6] = catalase 0.5 ppm, time 0 hr, series starting 14.6 ppm POAA, EnviroSan in water, ambient
[7] = catalase 0.5 ppm, time 0 hr, series starting 31.1 ppm POAA
[8] = catalase 0.5 ppm, time 1 hr, series starting 14.6 ppm POAA
[9] = catalase 0.5 ppm, time 1 hr, series starting 31.1 ppm POAA
[10] = catalase 0.5 ppm, time 2 hr, series starting 14.6 ppm POAA
[11] = catalase 0.5 ppm, time 2 hr, series starting 31.1 ppm POAA
[12] = catalase 0.5 ppm, time 3.6 hr, series starting 14.6 ppm POAA
[13] = catalase 0.5 ppm, time 3.6 hr, series starting 31.1 ppm POAA
[14] = catalase 1.0 ppm, time 0 hr, series starting 14.8 ppm POAA
[15] = catalase 1.0 ppm, time 0 hr, series starting 30.1 ppm POAA
[16] = catalase 1.0 ppm, time 1 hr, series starting 14.8 ppm POAA
[17] = catalase 1.0 ppm, time 1 hr, series starting 30.1 ppm POAA
[18] = catalase 1.0 ppm, time 2 hr, series starting 14.8 ppm POAA
[19] = catalase 1.0 ppm, time 2 hr, series starting 30.1 ppm POAA
[20] = catalase 1.0 ppm, time 3.6 hr, series starting 14.8 ppm POAA
[21] = catalase 1.0 ppm, time 3.6 hr, series starting 30.1 ppm POAA

For catalase, the “catalase concentration sufficient for treating the water source” value ([1]; ambient conditions) was roughly 1 ppm, the “H2O2 (ppm)” value [1, 6] was 12.0 ppm and the “POAA (ppm)” value [1, 6] was 14.6 ppm. The “H2O2 (ppm)” value [1, 7] was 22.8 ppm, the “POAA (ppm)” value [1, 7] was 31.1 ppm and the “H2O2 (ppm)” value [1, 8] was 7.5 ppm. The “POAA (ppm)” value [1, 8] was 15.0 ppm, the “H2O2 (ppm)” value [1, 9] was 12.2 ppm and the “POAA (ppm)” value [1, 9] was 32.0 ppm. For the same compound, the “H2O2 (ppm)” value [1, 10] was 6.5 ppm, the “POAA (ppm)” value [1, 10] was 14.3 ppm and the “H2O2 (ppm)” value [1, 11] was 7.8 ppm. The “POAA (ppm)” value [1, 11] was 29.2 ppm, the “H2O2 (ppm)” value [1, 12] was 1.8 ppm and the “POAA (ppm)” value [1, 12] was 14.2 ppm. The “H2O2 (ppm)” value [1, 13] was 3.4 ppm, the “POAA (ppm)” value [1, 13] was 30.6 ppm and the “H2O2 (ppm)” value [1, 14] was 12.6 ppm. For the same compound, the “POAA (ppm)” value [1, 14] was 14.8 ppm, the “H2O2 (ppm)” value [1, 15] was 23.3 ppm and the “POAA (ppm)” value [1, 15] was 30.1 ppm. The “H2O2 (ppm)” value [1, 16] was 3.7 ppm, the “POAA (ppm)” value [1, 16] was 14.6 ppm and the “H2O2 (ppm)” value [1, 17] was 7.6 ppm. For the same compound, the “POAA (ppm)” value [1, 17] was 31.0 ppm, the “H2O2 (ppm)” value [1, 18] was 1.1 ppm and the “POAA (ppm)” value [1, 18] was 14.2 ppm. For the same compound, the “H2O2 (ppm)” value [1, 19] was 2.3 ppm, the “POAA (ppm)” value [1, 19] was 29.6 ppm and the “H2O2 (ppm)” value [1, 20] was 0.4 ppm. The “POAA (ppm)” value [1, 20] was 15.9 ppm, the “H2O2 (ppm)” value [1, 21] was 0.0 ppm and the “POAA (ppm)” value [1, 21] was 29.3 ppm. The “selectivity of catalase for H2O2 over POAA” value ([1]; tested ambient conditions) was “selectively decomposes the H2O2 without having any negative impact on POAA stability” and the “lowest catalase concentration with which pond water with POAA and H2O2 could be treated” value ([1]; within 4 hours, ambient conditions) was 0.5 ppm.
In the case of `CC(=O)OO` [POAA, peracetic acid], the “Avg. Log10 Reduction” value (fracking water mixtures [2]; 75 ppm PAA holding tank pretreatment, 10% reuse H2O, 29 ppm POAA, no catalase, 2.5 minutes) was 6.45 Log10, the “Avg. Log10 Reduction” value (fracking water mixtures [2]; 75 ppm PAA holding tank pretreatment, 10% reuse H2O, 29 ppm POAA, no catalase, 5 minutes) was 6.71 Log10 and the “Avg. Log10 Reduction” value (fracking water mixtures [2]; 75 ppm PAA holding tank pretreatment, 20% reuse H2O, 47 ppm PAA, no catalase, 2.5 minutes) was 6.42 Log10. The “Avg. Log10 Reduction” value (fracking water mixtures [2]; 75 ppm PAA holding tank pretreatment, 20% reuse H2O, 47 ppm PAA, no catalase, 5 minutes) was 6.55 Log10, the “Avg. Log10 Reduction” value (fracking water mixtures [2]; 75 ppm PAA holding tank pretreatment, 30% reuse H2O, 86 ppm POAA, no catalase, 2.5 minutes) was 6.47 Log10 and the “Avg. Log10 Reduction” value (fracking water mixtures [2]; 75 ppm PAA holding tank pretreatment, 30% reuse H2O, 86 ppm POAA, no catalase, 5 minutes) was 6.41 Log10. The “Avg. Log10 Reduction” value (fracking water mixtures [2]; no holding tank pretreatment, 0% reuse H2O, 22 ppm POAA, 2.5 minutes) was 5.53 Log10, the “Avg. Log10 Reduction” value (fracking water mixtures [2]; no holding tank pretreatment, 0% reuse H2O, 22 ppm POAA, 5 minutes) was 5.75 Log10 and the “Avg. Log10 Reduction” value (fracking water mixtures [2]; no holding tank pretreatment, 10% reuse H2O, 36 ppm POAA, 2.5 minutes) was 4.32 Log10. For the same compound, the “Avg. Log10 Reduction” value (fracking water mixtures [2]; no holding tank pretreatment, 10% reuse H2O, 36 ppm POAA, 5 minutes) was 4.72 Log10, the “Avg. Log10 Reduction” value (fracking water mixtures [2]; no holding tank pretreatment, 20% reuse H2O, 86 ppm POAA, 2.5 minutes) was 4.57 Log10 and the “Avg. Log10 Reduction” value (fracking water mixtures [2]; no holding tank pretreatment, 20% reuse H2O, 86 ppm POAA, 5 minutes) was 4.64 Log10. The “Avg. Log10 Reduction” value (fracking water mixtures [2]; no holding tank pretreatment, 30% reuse H2O, 138 ppm POAA, 2.5 minutes) was 4.12 Log10, the “Avg. Log10 Reduction” value (fracking water mixtures [2]; no holding tank pretreatment, 30% reuse H2O, 138 ppm POAA, 5 minutes) was 5.00 Log10 and the “Actual Titrated Concentration (ppm POAA)” value ([3]; 70% Fresh/30% Produced, desired 30 ppm POAA, 1 minutes) was 7 ppm. The “Actual Titrated Concentration (ppm POAA)” value ([3]; 70% Fresh/30% Produced, desired 30 ppm POAA, 5 minutes) was 0 ppm, the “Actual Titrated Concentration (ppm POAA)” value ([3]; 70% Fresh/30% Produced, desired 40 ppm POAA, 1 minutes) was 12 ppm and the “Actual Titrated Concentration (ppm POAA)” value ([3]; 70% Fresh/30% Produced, desired 40 ppm POAA, 5 minutes) was 0 ppm. For the same compound, the “Actual Titrated Concentration (ppm POAA)” value ([3]; 80% Fresh/20% Produced, desired 30 ppm POAA, 1 minutes) was 13 ppm, the “Actual Titrated Concentration (ppm POAA)” value ([3]; 80% Fresh/20% Produced, desired 30 ppm POAA, 5 minutes) was 0 ppm and the “Actual Titrated Concentration (ppm POAA)” value ([3]; 80% Fresh/20% Produced, desired 40 ppm POAA, 1 minutes) was 21 ppm. For the same compound, the “Actual Titrated Concentration (ppm POAA)” value ([3]; 80% Fresh/20% Produced, desired 40 ppm POAA, 5 minutes) was 2 ppm, the “Actual Titrated Concentration (ppm POAA)” value ([3]; 90% Fresh/10% Produced, desired 30 ppm POAA, 1 minutes) was 21 ppm and the “Actual Titrated Concentration (ppm POAA)” value ([3]; 90% Fresh/10% Produced, desired 30 ppm POAA, 5 minutes) was 8 ppm. For the same compound, the “Actual Titrated Concentration (ppm POAA)” value ([3]; 90% Fresh/10% Produced, desired 40 ppm POAA, 1 minutes) was 30 ppm, the “Actual Titrated Concentration (ppm POAA)” value ([3]; 90% Fresh/10% Produced, desired 40 ppm POAA, 5 minutes) was 16 ppm and the “Avg. Log10 Reduction” value ([4]; 0% reuse H2O, 2.5 minutes) was 4.64 Log10. The “Avg. Log10 Reduction” value ([4]; 0% reuse H2O, 5 minutes) was 6.32 Log10, the “Avg. Log10 Reduction” value ([4]; 10% reuse H2O, 2.5 minutes) was 3.09 Log10 and the “Avg. Log10 Reduction” value ([4]; 10% reuse H2O, 5 minutes) was 3.91 Log10. The “Avg. Log10 Reduction” value ([4]; 20% reuse H2O, 2.5 minutes) was 2.19 Log10, the “Avg. Log10 Reduction” value ([4]; 20% reuse H2O, 5 minutes) was 2.38 Log10 and the “Avg. Log10 Reduction” value ([4]; 30% reuse H2O, 2.5 minutes) was 1.88 Log10. For the same compound, the “Avg. Log10 Reduction” value ([4]; 30% reuse H2O, 5 minutes) was 1.93 Log10, the “Avg. Log10 Reduction” value (fracking water mixtures [5]; 10% reuse H2O, 46 ppm PAA, 2.5 minutes) was 4.32 Log10 and the “Avg. Log10 Reduction” value (fracking water mixtures [5]; 10% reuse H2O, 46 ppm PAA, 5 minutes) was 4.72 Log10. The “Avg. Log10 Reduction” value (fracking water mixtures [5]; 20% reuse H2O, 86 ppm PAA, 2.5 minutes) was 4.57 Log10, the “Avg. Log10 Reduction” value (fracking water mixtures [5]; 20% reuse H2O, 86 ppm PAA, 5 minutes) was 4.64 Log10 and the “Avg. Log10 Reduction” value (fracking water mixtures [5]; 30% reuse H2O, 138 ppm PAA, 2.5 minutes) was 4.12 Log10. For the same compound, the “Avg. Log10 Reduction” value (fracking water mixtures [5]; 30% reuse H2O, 138 ppm PAA, 5 minutes) was 5.00 Log10.
